Results from US9375406B2, “Substituted pyrimidines for mobilizing cells expressing a type 4 CXC chemokine receptor” (TaiGen Biotechnology Co., Ltd., priority 2014, dated 2016).

Test system: T acute lymphoblastic leukemia (T-ALL) cells
Description: Mononuclear human leukemia cells were prepared using Ficoll gradient centrifugation and cryopreserved in liquid nitrogen. The frozen cells were thawed quickly and washed with PBS to remove the cryopreservation reagent. NOD/SCID mice (Institute of Cellular and Organismic Biology, Academia Sinica) were preconditioned with 200 centigray of total body irradiation at 6-8 weeks of age. The leukemia cells were then transplanted to the preconditioned NOD/SCID mice via tail vein. The resulting leukemia blast cells, i.e., T acute lymphoblastic leukemia (T-ALL) cells and acute myelogenous leukemia (AML) cells, were recovered from spleen and used in experiments as described below.
Mice were monitored for leukemia cell engraftment and dissemination by the appearance of human CD45^+ cells in mouse peripheral blood, which were sampled weekly after the 3rd week of cell transplantation. Peripheral blood samples were taken from the tail vein and red blood cells were lysed in ammonium chloride and resuspensed in Phosphate buffered saline (PBS) plus 2% Fetal Bovine Serum (FBS) before cell staining. […] After immunostaining, cells were washed, suspended in PBS plus 2% FBS, and analyzed using FACS Calibur (BD Biosciences). […]

`CC[C@]1(O)C[C@H]2CN(CCc3c([nH]c4ccccc34)[C@@](C(=O)OC)(c3cc4c(cc3OC)N(C=O)[C@H]3[C@@](O)(C(=O)OC)[C@H](OC(C)=O)[C@]5(CC)C=CCN6CC[C@]43[C@@H]65)C2)C1` [vincristine] was tested, and the average survival time (vincristine (0.5 mg/kg ip) alone, days 14, 21, 28) was 73.6 ± 7.1 days and the “time until which CD45+ cells in the peripheral blood were not detected” value (vincristine (0.5 mg/kg) alone) was 8 weeks.
